Laboratory results taken from patent US4180677A, “Novel prostaglandins” (American Cyanamid Company, priority 1977, dated 1979).

Experiments:
[1] = tested on: ulcerogenic properties of indomethacin; test: Protection against indomethacin-induced ulcers (oral gavage); format: in vivo, rat; conditions: rats, indomethacin 20 mg./kg. s.c., score 0 normal to 4 many ulcers
Description: The compounds of this invention provide protection against the ulcerogenic properties of indomethacin. This assay was carried out in the following manner.
Rats were starved for 48 hours (water was given ad libitum). Indomethacin (20 mg./kg. of body weight) was administered by the subcutaneous route and one-half the dose of the test compound was administered by gavage at the same time. After three hours, the second half of the test compound was administered also be gavage. Five hours after the administration of indomethacin the animals were decapitated and the stomachs removed. The stomachs were washed with distilled water, blotted on gauze, cut along the larger curvature, and the contents rinsed with distilled water. The stomachs were spread out, pinned on a cork and visualized under magnifying glass for ulcers. The criteria for scoring of ulcers was as previously reported. [Abdel-Galil et al. Brit. J. Pharmac. Chemotherapy 33:1-14 (1968)].
1-Petechial hemorrhage or pin point ulder
3 Many ulcers, a few large
4-Many ulcers, mainly large
Control animals treated with indomethacin but not test compound consistenly give scores of about 3.0. Control animals treated with neither indomethacin nor test compound gives scores of about 0.5-0.8. Compounds producing a lowering of the control score by 0.5 or more are considered to be active.

[2] = tested on: bronchospasms elicited by histamine; test: Bronchodilator activity (Konzett assay), spasmogen histamine; format: in vivo, guinea pig; conditions: Cavia porcellus; guinea pigs, spasmogen histamine i.v.; three logarithmic cumulative intravenous doses
Description: (§1) Bronchodilator activity was determined in guinea pigs against bronchospasms elicited by intravenous injections of 5-hydroxytryptamine, histamine or acetylcholine by the Konzett procedure. [See J. Lulling, P. Lievens, F. El Sayed and J. Prignot, Arzneimittel-Forschung, 18, 995 (1968).]
(§2) In the Table which follows bronchodilator activity for representative compounds of this invention against one or more of three spasmogenic agents is expressed as an ED50 determined from the results obtained with three logarithemic cumulative intravenous doses.

[3] = tested on: bronchospasms elicited by 5-hydroxytryptamine; test: Bronchodilator activity (Konzett assay), spasmogen 5-hydroxytryptamine; format: in vivo, guinea pig; conditions: Cavia porcellus; guinea pigs, spasmogen 5-hydroxytryptamine i.v.; three logarithmic cumulative intravenous doses
Description: as §1, §2

[4] = tested on: bronchospasms elicited by acetylcholine; test: Bronchodilator activity (Konzett assay), spasmogen acetylcholine; format: in vivo, guinea pig; conditions: Cavia porcellus; guinea pigs, spasmogen acetylcholine i.v.; three logarithmic cumulative intravenous doses
Description: as §1, §2

O=C(O)CCCCCC[C@H]1C(=O)CC[C@@H]1/C=C/[C@H](O)CC1CCCC1 (relative stereo) [9-oxo-15-epi-hydroxy-17,20-methano-13-trans-prostenoic acid]
Score, treated (ulcer score) ([1]; total oral dose 25.0 mg./kg. of body weight, control score 3.0): 1.7
ED50 [2]: 0.206 mg/kg
ED50 [3]: 3.2 mg/kg
ED50 [4]: 3.2 mg/kg

O=C(O)CCCCCC[C@H]1C(=O)CC[C@@H]1/C=C/[C@@H](O)CC1CCCC1 (relative stereo) [9-oxo-15-hydroxy-17,20-methano-13-trans-prostenoic acid]
Score, treated (ulcer score) ([1]; total oral dose 12.5 mg./kg. of body weight, control score 2.8): 1.8
ED50 [2]: 0.0014 mg/kg
ED50 [3]: 0.0063 mg/kg
ED50 [4]: 3.2 mg/kg
